{"source": "patent US20210255193A1", "about": "“LYSINE REACTIVE PROBES AND USES THEREOF” (The Scripps Research Institute, priority 2017, published 2021)", "test_in_all_cases": "competitive isoTOP-ABPP", "key": {"[1]": {"target": "T1, DYNC1H1 Cytoplasmic dynein 1 heavy chain 1 (Homo sapiens, UniProt Q14204)", "T1 construct": "isoTOP-ABPP experiments performed in cell lysates (in vitro); endogenous in cells; host or cells: soluble proteome of human cancer cell lines (MDA-MB-231, Ramos, Jurkat)", "T1 sequence (Q14204 whole entry, the tested form may be a part)": "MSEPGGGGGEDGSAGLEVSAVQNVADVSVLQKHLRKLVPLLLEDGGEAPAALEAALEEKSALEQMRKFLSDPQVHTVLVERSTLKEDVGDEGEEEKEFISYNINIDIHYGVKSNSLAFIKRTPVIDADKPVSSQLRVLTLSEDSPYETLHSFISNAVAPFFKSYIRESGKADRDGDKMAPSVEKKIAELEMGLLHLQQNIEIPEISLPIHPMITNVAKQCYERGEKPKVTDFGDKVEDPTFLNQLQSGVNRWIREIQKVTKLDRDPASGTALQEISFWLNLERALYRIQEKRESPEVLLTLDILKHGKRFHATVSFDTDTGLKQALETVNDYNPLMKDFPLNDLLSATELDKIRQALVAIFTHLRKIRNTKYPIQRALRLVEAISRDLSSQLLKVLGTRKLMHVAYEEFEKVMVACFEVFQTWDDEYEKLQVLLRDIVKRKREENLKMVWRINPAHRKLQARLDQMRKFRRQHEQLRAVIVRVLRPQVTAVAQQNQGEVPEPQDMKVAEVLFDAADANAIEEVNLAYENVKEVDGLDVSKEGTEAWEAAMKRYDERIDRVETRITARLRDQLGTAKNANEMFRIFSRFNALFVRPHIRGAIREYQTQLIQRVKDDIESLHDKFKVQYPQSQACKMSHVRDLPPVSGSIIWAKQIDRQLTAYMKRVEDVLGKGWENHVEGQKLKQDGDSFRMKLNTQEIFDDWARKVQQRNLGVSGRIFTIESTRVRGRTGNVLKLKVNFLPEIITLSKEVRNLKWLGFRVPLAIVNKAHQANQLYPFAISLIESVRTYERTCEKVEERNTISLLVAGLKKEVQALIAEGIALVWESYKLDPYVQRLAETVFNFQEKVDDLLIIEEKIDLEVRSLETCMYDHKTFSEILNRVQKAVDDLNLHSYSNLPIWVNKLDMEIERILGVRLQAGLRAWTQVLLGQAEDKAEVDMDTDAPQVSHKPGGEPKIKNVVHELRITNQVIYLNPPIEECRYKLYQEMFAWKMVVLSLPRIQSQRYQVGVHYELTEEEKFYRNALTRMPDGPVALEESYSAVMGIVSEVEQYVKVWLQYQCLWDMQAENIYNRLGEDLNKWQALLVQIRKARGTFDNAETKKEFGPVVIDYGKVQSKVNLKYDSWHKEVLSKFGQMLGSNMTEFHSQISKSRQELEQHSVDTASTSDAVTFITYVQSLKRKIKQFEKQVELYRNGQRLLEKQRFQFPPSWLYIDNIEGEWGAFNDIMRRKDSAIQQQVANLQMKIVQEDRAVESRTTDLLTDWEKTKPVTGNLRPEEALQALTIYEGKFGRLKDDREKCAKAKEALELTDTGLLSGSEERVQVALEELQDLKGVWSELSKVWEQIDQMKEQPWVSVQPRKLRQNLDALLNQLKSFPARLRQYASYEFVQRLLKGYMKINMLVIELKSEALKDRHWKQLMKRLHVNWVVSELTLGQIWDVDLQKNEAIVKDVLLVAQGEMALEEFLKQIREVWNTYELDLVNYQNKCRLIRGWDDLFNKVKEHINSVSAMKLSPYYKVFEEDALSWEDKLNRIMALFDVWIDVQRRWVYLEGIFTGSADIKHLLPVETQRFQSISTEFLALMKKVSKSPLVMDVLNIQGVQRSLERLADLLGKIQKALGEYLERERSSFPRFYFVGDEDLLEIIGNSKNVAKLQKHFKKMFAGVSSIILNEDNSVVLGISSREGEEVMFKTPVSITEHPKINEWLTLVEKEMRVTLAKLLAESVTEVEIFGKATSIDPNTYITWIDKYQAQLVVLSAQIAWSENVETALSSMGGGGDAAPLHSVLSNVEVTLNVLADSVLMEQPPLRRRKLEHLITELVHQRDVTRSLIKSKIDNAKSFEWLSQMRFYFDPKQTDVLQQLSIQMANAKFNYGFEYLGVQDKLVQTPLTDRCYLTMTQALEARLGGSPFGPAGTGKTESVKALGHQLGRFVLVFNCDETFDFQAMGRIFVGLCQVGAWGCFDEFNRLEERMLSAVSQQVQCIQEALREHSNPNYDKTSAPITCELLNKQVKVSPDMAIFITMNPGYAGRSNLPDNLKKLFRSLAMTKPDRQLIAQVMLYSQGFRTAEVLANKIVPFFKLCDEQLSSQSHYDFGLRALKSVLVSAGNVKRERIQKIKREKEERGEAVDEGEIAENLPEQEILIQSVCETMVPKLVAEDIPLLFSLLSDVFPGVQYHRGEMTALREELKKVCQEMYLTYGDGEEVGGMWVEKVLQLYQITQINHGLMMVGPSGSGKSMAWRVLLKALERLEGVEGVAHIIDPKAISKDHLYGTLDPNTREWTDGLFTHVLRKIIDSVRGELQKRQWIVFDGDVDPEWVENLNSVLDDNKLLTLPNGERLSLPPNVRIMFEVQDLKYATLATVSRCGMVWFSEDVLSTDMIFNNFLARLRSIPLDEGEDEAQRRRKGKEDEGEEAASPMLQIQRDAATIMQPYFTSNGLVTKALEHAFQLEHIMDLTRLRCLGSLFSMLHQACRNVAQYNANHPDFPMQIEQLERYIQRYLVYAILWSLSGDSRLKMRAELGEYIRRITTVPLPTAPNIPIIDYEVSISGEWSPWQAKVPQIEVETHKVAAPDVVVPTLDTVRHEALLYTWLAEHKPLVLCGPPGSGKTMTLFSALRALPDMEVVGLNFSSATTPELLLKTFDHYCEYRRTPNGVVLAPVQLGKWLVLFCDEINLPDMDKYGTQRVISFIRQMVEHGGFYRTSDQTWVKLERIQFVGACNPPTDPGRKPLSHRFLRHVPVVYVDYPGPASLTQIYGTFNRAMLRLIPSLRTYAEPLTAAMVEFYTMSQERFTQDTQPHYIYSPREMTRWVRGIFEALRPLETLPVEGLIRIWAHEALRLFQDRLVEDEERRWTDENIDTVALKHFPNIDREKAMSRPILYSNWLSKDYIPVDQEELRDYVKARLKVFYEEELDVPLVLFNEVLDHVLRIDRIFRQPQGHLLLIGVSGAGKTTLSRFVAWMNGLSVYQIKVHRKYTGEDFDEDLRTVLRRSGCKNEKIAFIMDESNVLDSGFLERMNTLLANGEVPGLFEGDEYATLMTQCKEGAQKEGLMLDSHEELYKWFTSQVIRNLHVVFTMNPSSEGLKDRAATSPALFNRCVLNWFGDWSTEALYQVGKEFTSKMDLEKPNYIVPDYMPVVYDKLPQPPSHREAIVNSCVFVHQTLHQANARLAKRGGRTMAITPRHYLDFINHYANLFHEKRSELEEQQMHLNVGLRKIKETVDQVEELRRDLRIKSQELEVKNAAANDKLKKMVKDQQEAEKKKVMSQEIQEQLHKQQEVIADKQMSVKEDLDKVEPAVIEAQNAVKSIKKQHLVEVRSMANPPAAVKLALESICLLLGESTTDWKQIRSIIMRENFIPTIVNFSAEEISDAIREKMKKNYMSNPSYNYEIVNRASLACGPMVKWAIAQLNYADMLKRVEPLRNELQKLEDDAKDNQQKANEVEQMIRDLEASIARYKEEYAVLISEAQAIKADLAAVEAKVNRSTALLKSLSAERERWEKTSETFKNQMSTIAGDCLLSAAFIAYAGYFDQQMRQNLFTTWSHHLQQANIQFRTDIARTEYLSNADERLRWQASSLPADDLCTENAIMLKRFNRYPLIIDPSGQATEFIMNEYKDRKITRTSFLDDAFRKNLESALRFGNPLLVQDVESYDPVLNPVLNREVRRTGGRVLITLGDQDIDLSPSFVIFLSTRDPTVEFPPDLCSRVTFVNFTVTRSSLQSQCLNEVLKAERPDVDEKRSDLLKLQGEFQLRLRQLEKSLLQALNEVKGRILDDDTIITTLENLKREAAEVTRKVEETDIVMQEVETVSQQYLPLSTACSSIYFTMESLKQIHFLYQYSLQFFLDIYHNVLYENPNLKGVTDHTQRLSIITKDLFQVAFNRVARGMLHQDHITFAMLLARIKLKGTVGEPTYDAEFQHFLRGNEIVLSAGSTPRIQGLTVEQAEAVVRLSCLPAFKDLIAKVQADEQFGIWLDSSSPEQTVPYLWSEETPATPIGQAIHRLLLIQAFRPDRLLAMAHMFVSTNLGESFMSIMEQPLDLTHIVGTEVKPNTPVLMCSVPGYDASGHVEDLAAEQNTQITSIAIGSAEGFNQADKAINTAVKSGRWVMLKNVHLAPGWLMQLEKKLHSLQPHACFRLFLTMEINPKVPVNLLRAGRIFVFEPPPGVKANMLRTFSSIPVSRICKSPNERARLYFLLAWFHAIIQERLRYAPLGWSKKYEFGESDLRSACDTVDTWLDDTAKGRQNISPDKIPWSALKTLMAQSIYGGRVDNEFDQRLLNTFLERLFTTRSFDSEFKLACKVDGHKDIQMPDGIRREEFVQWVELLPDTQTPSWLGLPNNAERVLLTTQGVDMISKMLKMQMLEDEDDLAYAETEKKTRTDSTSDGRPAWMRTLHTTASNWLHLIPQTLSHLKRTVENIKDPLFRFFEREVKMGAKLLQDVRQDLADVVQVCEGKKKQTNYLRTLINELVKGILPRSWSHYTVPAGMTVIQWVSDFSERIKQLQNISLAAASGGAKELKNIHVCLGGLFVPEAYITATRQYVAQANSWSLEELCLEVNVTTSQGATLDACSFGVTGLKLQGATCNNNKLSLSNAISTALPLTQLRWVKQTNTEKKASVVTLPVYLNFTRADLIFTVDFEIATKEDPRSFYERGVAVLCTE", "type": "binding", "details": "for isoTOP-ABPP ratio (R) at liganded lysine Q14204_K1649: sol, 231", "how_it_was_run": "(§1)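 Probe: STP-alkyne, 0.1 mM, 1 h RT, after fragment pretreatment of lysate (esters 50 μM; guanidinylators 100 μM). Tags: light = compound, heavy = DMSO, via CuAAC. Replicates averaged if SD <60% of mean; otherwise lowest ratio used when any R <4.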"}, "[2]": {"target": "T2, NPEPPS Puromycin-sensitive aminopeptidase (Homo sapiens, UniProt P55786)", "T2 construct": "isoTOP-ABPP experiments performed in cell lysates (in vitro); endogenous in cells; host or cells: soluble proteome of human cancer cell lines (MDA-MB-231, Ramos, Jurkat)", "type": "binding", "details": "for isoTOP-ABPP ratio (R) at liganded lysine P55786_K712: sol, 231", "how_it_was_run": "as §1"}, "[3]": {"target": "T3, PNPO Pyridoxine-5-phosphate oxidase (Homo sapiens, UniProt Q9NVS9)", "T3 construct": "endogenous in cells; host or cells: MDA-MB-231 (soluble fraction of lysate)", "T3 sequence (Q9NVS9 1-261)": "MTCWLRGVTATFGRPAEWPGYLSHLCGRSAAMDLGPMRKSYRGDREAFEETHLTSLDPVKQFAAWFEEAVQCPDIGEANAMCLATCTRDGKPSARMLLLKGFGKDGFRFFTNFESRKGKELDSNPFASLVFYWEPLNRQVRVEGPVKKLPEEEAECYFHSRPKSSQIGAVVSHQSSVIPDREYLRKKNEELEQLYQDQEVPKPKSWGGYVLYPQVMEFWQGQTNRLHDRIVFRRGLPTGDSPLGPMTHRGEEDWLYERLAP", "type": "binding", "details": "for isoTOP-ABPP ratio (R) at liganded lysine Q9NVS9_K100: sol, 231", "how_it_was_run": "as §1"}, "[4]": {"target": "T4, ADK Adenosine kinase (Homo sapiens, UniProt P55263)", "T4 construct": "isoTOP-ABPP experiments performed in cell lysates (in vitro); endogenous in cells; host or cells: soluble proteome of human cancer cell lines (MDA-MB-231, Ramos, Jurkat)", "type": "binding", "set-up": "key to isoTOP-ABPP reactivity ratio at lysine P55263_K88: R = MS1 peak area ratio, DMSO (heavy) / compound-treated (light)", "details": "for isoTOP-ABPP ratio (R) at liganded lysine P55263_K88: sol, 231", "method": "(§2) In vitro covalent fragment treatment for isoTOP-ABPP. All compounds were made up as solutions in DMSO (100×) and were used at a final concentration of 50 μM for activated esters and 100 μM for guanidinylating agents. For each profiling sample, 0.5 ml of lysate was treated with 5 μl of the 100× compound stock solution or 5 μl of DMSO. Samples were treated with activated esters for\n(§3) STP-alkyne labeling and click chemistry. For concentration-dependent reactivity measurements by isoTOP-ABPP, 0.5 ml proteome aliquots were treated at ambient temperature with 1 mM STP-alkyne 1 (5 μl of 100 mM stock in DMSO) and 0.1 mM STP alkyne 1 (5 μl of 10 mM stock in DMSO), respectively. For competitive isoTOP-ABPP, after in vitro fragment treatment (detailed above), the samples were labeled for 1 h at ambient temperature with 0.1 mM STP-alkyne 1 (5 μl of 10 mM stock in DMSO). Samples were conjugated by copper-mediated azide-alkyne cycloaddition (CuAAC) to either the light (1 mM STP-alkyne or fragment treated) or heavy (0.1 mM STP-alkyne or DMSO treated) TEV tags (10 μl of 5 mM stocks in DMSO, final concentration=100 μM) using tris(2-carboxyethyl)phosphine hydrochloride\n(§4) R value calculation and processing. The ratios of light and heavy MS1 peaks for each unique peptide were quantified with a CIMAGE software using default parameters (3 MS1 acquisitions per peak and signal to noise threshold set to 2.5). For reactivity measurements by isoTOP-ABPP, the R value was calculated from the ratio of MS1 peak areas, comparing the 1 mM STP alkyne sample (light TEV tag) with the 0.1 mM STP alkyne sample (heavy TEV tag). For competitive isoTOP-ABPP, the R value was calculated from the ratio of MS1 peak areas, comparing the DMSO treated sample (heavy TEV tag) with the compound treated sample (light TEV tag). […] Ratios for unique peptide entries are calculated for each experiment; overlapping peptides with the same modified lysine (for example, different charge states, MudPIT chromatographic steps or tryptic termini) are grouped together and the median ratio is reported as the final ratio (R). The peptide ratios reported by CIMAGE were further filtered to ensure the removal or correction of low-quality ratios in each individual data set. The quality filters applied were the following: removal of half tryptic peptides; for ratios with high standard deviations from the median (90% of the median or above) the lowest ratio was taken instead of the median; removal of peptides with R=20 and only a single MS2 event triggered during the elution of the parent ion; manual annotation of all the peptides with ratios of 20, removing any peptides with low quality elution profiles that remained after the previous curation steps (only done for competitive isoTOP-ABPP).\n(§5) Cross-data processing for fragment screening. For compound treated samples, biological replicates of the same condition were averaged, if the standard deviation was below 60% of the mean; otherwise, for lysines with at least one R value <4 for a particular compound, the lowest value of the ratio set was taken. For lysines, where all R values for a particular compound were ≥4, the average was reported. For peptides containing several possible modified lysines, the lysine with the highest number of quantification events was used for analysis and the remaining, redundant peptides were reported as alternative modification sites. Peptides included in the aggregate dataset (those used for further bioinformatics and statistical analyses) were required to have been quantified in 2 experiments for competitive isoTOP-ABPP. Lysines were categorized as liganded, if they had at least one ratio R≥4 (hit fragments). For liganded lysines with R=20 for all liganding events, lysines were required to have been quantified with R=20 in two separate experiments and were further required to have been quantified with R<20 in one additional experiment."}, "[5]": {"target": "T5, NONO Non-POU domain-containing octamer-binding protein (Homo sapiens, UniProt Q15233)", "T5 construct": "isoTOP-ABPP experiments performed in cell lysates (in vitro); endogenous in cells; host or cells: soluble proteome of human cancer cell lines (MDA-MB-231; Ramos and Jurkat also prepared)", "T5 sequence (Q15233 1-471)": "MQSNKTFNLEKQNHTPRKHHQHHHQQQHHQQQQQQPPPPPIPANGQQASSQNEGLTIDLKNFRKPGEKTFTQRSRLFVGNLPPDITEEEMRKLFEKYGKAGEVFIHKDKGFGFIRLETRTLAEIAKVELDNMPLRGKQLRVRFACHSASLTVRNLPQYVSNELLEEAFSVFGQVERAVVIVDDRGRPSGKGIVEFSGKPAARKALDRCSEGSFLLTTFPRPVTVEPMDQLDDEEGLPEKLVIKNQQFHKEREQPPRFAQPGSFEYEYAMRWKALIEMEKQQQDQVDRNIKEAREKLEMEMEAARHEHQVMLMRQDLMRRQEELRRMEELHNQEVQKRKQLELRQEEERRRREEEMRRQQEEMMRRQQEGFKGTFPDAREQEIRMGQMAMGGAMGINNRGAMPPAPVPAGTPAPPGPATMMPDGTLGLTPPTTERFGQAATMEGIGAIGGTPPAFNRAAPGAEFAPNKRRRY", "details": "for isoTOP-ABPP ratio (R) at liganded lysine Q15233_K467: sol, 231", "how_it_was_run": "as §1"}, "[6]": {"target": "T6, PSME3 Proteasome activator complex subunit 3 (Homo sapiens, UniProt P61289)", "T6 construct": "isoTOP-ABPP experiments performed in cell lysates (in vitro); endogenous in cells; host or cells: soluble proteome of human cancer cell lines (MDA-MB-231, Ramos, Jurkat)", "T6 sequence (P61289 whole entry, one chain of several)": "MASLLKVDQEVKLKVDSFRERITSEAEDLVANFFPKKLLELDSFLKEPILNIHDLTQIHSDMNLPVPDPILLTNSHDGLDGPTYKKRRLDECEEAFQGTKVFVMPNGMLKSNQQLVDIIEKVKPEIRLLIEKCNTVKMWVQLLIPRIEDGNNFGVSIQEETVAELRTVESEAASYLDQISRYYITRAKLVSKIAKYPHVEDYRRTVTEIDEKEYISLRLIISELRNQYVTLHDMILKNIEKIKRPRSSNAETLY", "type": "binding", "set-up": "key to isoTOP-ABPP reactivity ratio at lysine P61289_K237: R = MS1 peak area ratio, DMSO (heavy) / compound-treated (light); key to isoTOP-ABPP reactivity ratio at lysine P61289_K12: R = MS1 peak area ratio, DMSO (heavy) / compound-treated (light); capped at 20", "method": "as §2, §3, §4, §5"}}, "data": [{"smiles": "COc1cc(CCC(=O)Oc2ccc([N+](=O)[O-])cc2[N+](=O)[O-])cc(OC)c1OC", "note": "[fragment 33, 2,4-Dinitrophenyl 3-(3,4,5-trimethoxyphenyl)propanoate]", "values": [{"measurement": "isoTOP-ABPP reactivity ratio at lysine Q14204_K1649", "setting": "[1]; 50 uM, 231 sol, in vitro", "value": 1.1}, {"measurement": "isoTOP-ABPP reactivity ratio at lysine P55786_K712", "setting": "[2]; 50 uM, 231 sol, in vitro", "value": 1.2}, {"measurement": "isoTOP-ABPP reactivity ratio at lysine Q9NVS9_K100", "setting": "[3]; 50 uM, 231 sol, in vitro", "value": 1.2}, {"measurement": "isoTOP-ABPP reactivity ratio at lysine P55263_K88", "setting": "[4]; 50 uM, 231 sol, in vitro", "value": 0.9}, {"measurement": "isoTOP-ABPP reactivity ratio at lysine Q15233_K467", "setting": "[5]; 50 uM, 231 sol, in vitro", "value": 3.7}, {"measurement": "isoTOP-ABPP reactivity ratio at lysine P61289_K12", "setting": "[6]; 50 uM, 231 sol, in vitro", "value": 2.1}, {"measurement": "isoTOP-ABPP reactivity ratio at lysine P61289_K237", "setting": "[6]; 50 uM, 231 sol, in vitro", "value": 1.1}]}, {"smiles": "O=C(Oc1ccc([N+](=O)[O-])cc1[N+](=O)[O-])c1ccccc1Nc1cccc(C(F)(F)F)c1", "note": "[fragment 40, 2,4-Dinitrophenyl 2-((3-(trifluoromethyl)phenyl)amino)benzoate]", "values": [{"measurement": "isoTOP-ABPP ratio (R) at liganded lysine Q14204_K1649", "setting": "[1]; 50 uM, in vitro", "value": 0.8}, {"measurement": "isoTOP-ABPP ratio (R) at liganded lysine P55786_K712", "setting": "[2]; 50 uM, in vitro", "value": 1.0}, {"measurement": "isoTOP-ABPP ratio (R) at liganded lysine Q9NVS9_K100", "setting": "[3]; 50 uM, in vitro", "value": 0.9}, {"measurement": "isoTOP-ABPP ratio (R) at liganded lysine P55263_K88", "setting": "[4]; 50 uM, in vitro", "value": 0.9}, {"measurement": "isoTOP-ABPP ratio (R) at liganded lysine Q15233_K467", "setting": "[5]; 50 uM, in vitro", "value": 4.1}, {"measurement": "isoTOP-ABPP ratio (R) at liganded lysine P61289_K12", "setting": "[6]; 50 uM, in vitro, sol, 231", "value": 0.8}, {"measurement": "isoTOP-ABPP ratio (R) at liganded lysine P61289_K237", "setting": "[6]; 50 uM, in vitro, sol, 231", "value": 0.7}]}, {"smiles": "CC(=O)Oc1ccc([N+](=O)[O-])cc1[N+](=O)[O-]", "note": "[fragment 43, 2,4-Dinitrophenyl acetate]", "values": [{"measurement": "isoTOP-ABPP ratio (R) at liganded lysine Q14204_K1649", "setting": "[1]; 50 uM, in vitro", "value": 0.9}, {"measurement": "isoTOP-ABPP ratio (R) at liganded lysine P55786_K712", "setting": "[2]; 50 uM, in vitro", "value": 2.3}, {"measurement": "isoTOP-ABPP ratio (R) at liganded lysine Q9NVS9_K100", "setting": "[3]; 50 uM, in vitro", "value": 1.0}, {"measurement": "isoTOP-ABPP ratio (R) at liganded lysine P55263_K88", "setting": "[4]; 50 uM, in vitro", "value": 0.9}, {"measurement": "isoTOP-ABPP ratio (R) at liganded lysine Q15233_K467", "setting": "[5]; 50 uM, in vitro", "value": 3.1}]}, {"smiles": "N#Cc1ccc(C(=O)Oc2ccc([N+](=O)[O-])cc2[N+](=O)[O-])cc1", "note": "[fragment 44, 2,4-Dinitrophenyl 4-cyanobenzoate]", "values": [{"measurement": "isoTOP-ABPP ratio, lysine Q14204_K1649", "setting": "[1]; 50 uM_231_sol_in vitro", "value": 1.3}, {"measurement": "isoTOP-ABPP ratio, lysine P55786_K712", "setting": "[2]; 50 uM_231_sol_in vitro", "value": 1.0}, {"measurement": "isoTOP-ABPP ratio, lysine Q9NVS9_K100", "setting": "[3]; 50 uM_231_sol_in vitro", "value": 0.9}, {"measurement": "isoTOP-ABPP ratio, lysine P55263_K88", "setting": "[4]; 50 uM_231_sol_in vitro", "value": 0.5}, {"measurement": "isoTOP-ABPP ratio, lysine Q15233_K467", "setting": "[5]; 50 uM_231_sol_in vitro", "value": 0.9}]}, {"smiles": "COC(=O)NC(=NC(=O)OCC1c2ccccc2-c2ccccc21)n1cccn1", "note": "[fragment 49, N-Methoxycarbonyl-N′-9-fluorenylmethoxycarbonyl-pyrazole-1-carboxamidine]", "values": [{"measurement": "isoTOP-ABPP ratio, lysine P55786_K712", "setting": "[2]; 100 uM_231_sol_in vitro", "value": 1.3}, {"measurement": "isoTOP-ABPP ratio, lysine Q9NVS9_K100", "setting": "[3]; 100 uM_231_sol_in vitro", "value": 3.3}, {"measurement": "isoTOP-ABPP ratio, lysine P55263_K88", "setting": "[4]; 100 uM_231_sol_in vitro", "value": 1.2}, {"measurement": "isoTOP-ABPP ratio, lysine Q15233_K467", "setting": "[5]; 100 uM_231_sol_in vitro", "value": 4.9}, {"measurement": "isoTOP-ABPP ratio, lysine P61289_K12", "setting": "[6]; 100 uM_231_sol_in vitro", "value": 0.8}, {"measurement": "isoTOP-ABPP ratio, lysine P61289_K237", "setting": "[6]; 100 uM_231_sol_in vitro", "value": 0.8}]}]}
